# Assay results taken from paper PMC7168933, “Design, Synthesis and Biochemical Evaluation of Novel Ethanoanthracenes and Related Compounds to Target Burkitt’s Lymphoma” (Pharmaceuticals, 2020).
# Read-outs that look alike come from different tables or passages of the source.
# What was measured:
# [1] = tested on: MUTU-1 Burkitt lymphoma cell line (EBV+); conditions: 24 h
# [2] = tested on: DG-75 Burkitt lymphoma cell line (EBV−, chemoresistant); conditions: 48 h
# [3] = tested on: MUTU-1 Burkitt lymphoma cell line (EBV+); assay: cells; conditions: Mutu-1, 24 h; for viability at 1 µM: read-out: MUTU-1 Cell Viability % 1 μM, 1 μM, 24 h; for viability at 10 µM: read-out: MUTU-1 Cell Viability % 10 μM, 10 μM, 24 h; for IC50: read-out: IC50 MUTU-I 24 h
# [4] = tested on: DG-75 Burkitt lymphoma cell line (EBV−, chemoresistant); assay: cells; conditions: Homo sapiens, DG-75, 48 h; for viability at 1 µM: read-out: DG-75 Cell Viability % 1 μM, 1 μM, 48 h; for viability at 10 µM: read-out: DG-75 Cell Viability % 10 μM, 10 μM, 48 h; for IC50: read-out: IC50 DG-75 48 h
# [5] = tested on: MUTU-1 Burkitt's lymphoma cell line; assay: FITC Annexin V/PI FACS analysis of apoptosis in MUTU-I cells; format: cell-based; conditions: 24 h
# Experimental: (§1) BL cells DG-75 and MUTU-1 (750,000) were treated with the specified concentration of the selected compound and incubated for 24 h (MUTU-1) or 48 h (DG-75) with taxol as the positive control. Samples were harvested by centrifugation and the pellets were rinsed with 0.5 mL of Ca^2+ Annexin V binding buffer (0.1 M HEPES, pH 7.4; 1.4 M NaCl; 25 mM CaCl2) each and pelleted again by centrifugation. Supernatants were decanted and the pellets were suspended again in 50 µL FITC Annexin V (diluted 1:33 in Ca^2+ Annexin V binding buffer), the samples were then placed on ice and incubated for 10 min in the dark. After the incubation period 0.5 mL of Ca^2+ Annexin V binding buffer was added and samples were pelleted by centrifugation. The supernatant was decanted and the pellet was suspended in PI solution (500 µL; 0.5 µg/mL). After 1 h, the samples were recorded using a CyAn ADP flow cytometer (Beckman Coulter Inc., Brea, CA, USA). 10,000 cells were analysed with the Flowjo software package. Taxol was used as a positive control for cell death.
# [6] = tested on: DG-75 Burkitt's lymphoma cell line; assay: FITC Annexin V/PI FACS analysis of apoptosis in DG-75 cells; format: cell-based; conditions: 48 h
# Experimental: as §1
# [7] = HPLC stability study in phosphate buffers; format: physicochemical
# Experimental: The HPLC stability studies for compound 16a were performed using a Symmetry® column (C18, 5 µm, 4.6 × 150 mm), detector Waters 2487 Dual Wavelength Absorbance, HPLC pump: Waters 1525 binary and Autosampler: Waters 717 plus (Waters Corporation, Milford, MA, USA). Samples were detected at wavelength of 254 nm. The chromatography was performed with the following optimised conditions: mobile phase: (acetonitrile (80%): water (20%)), run time: 10 min, flow rate: 1 mL/min, with detection at 254 nm. Compound 16a (5 mg) was dissolved in the mobile phase (10 mL) to provide the stock solution for the experiment. The phosphate buffers were prepared following the British Pharmacopoeia monograph 2019 at the selected pH 4, pH 7.4 and pH 9. To a volume of the appropriate buffer (1 mL), stock solution (30 μL) was added, and the solution was shaken and then used immediately for the experiment. Samples of the solution were then analysed over the following 48 h period at selected time intervals (t = 0 min, 5 min, 30 min, 60 min, 90 min, 120 min, 24 h and 48 h).
SMILES,melting point [°C],cell viability in MUTU-I cell line (1 and 10 μM together or concentration not stated) [1],DG-75 Cell Viability % 1 μM [2] [%],viability at 1 µM [3] [%],viability at 10 µM [3] [%],viability at 1 µM [4] [%],viability at 10 µM [4] [%],apoptosis in DG-75 at 10 µM [6] [%],IC50 [3] [nM],IC50 [4] [nM],DG-75 Cell Viability % 10 μM [2] [%],other results
"C/C(=C\C12c3ccccc3C(c3ccccc31)C1C(=O)OC(=O)C12)[N+](=O)[O-] (stereo not shown) [Compound 13b, (E)-9-(2-Nitroprop-1-en-1-yl)-9,10-dihydro-9,10-[3,4]furanoanthracene-12,14-dione]",256 to 258,7–24%,1.1,11.7,7.2,1,0.47,–,–,–,–,–
"O=C1C2C3c4ccccc4C(C=C[N+](=O)[O-])(c4ccccc43)C2C(=O)N1c1ccccc1 (stereo not shown) [Compound 16a, (E)-9-(2-Nitrovinyl)-13-phenyl-9,10-dihydro-9,10-[3,4]epipyrroloanthracene-12,14-dione]",–,–,< 6,10,1.4,–,1.1,92,210,710,–,"apoptosis in MUTU-I at 0.2 µM [5]: 46%; apoptosis in MUTU-I at 0.5 µM [5]: over 80%; apoptosis in MUTU-I at 1 µM [5]: over 80%; apoptosis in MUTU-I at 10 µM [5]: over 80%; apoptosis in DG-75 at lower concentrations ([6]; concentrations lower than 10 µM): < 5%; half-life at 14.6 µg/mL ([7]; pH 4 phosphate buffer, read-out: half-life (t½) at pH 4 (converted)): 660 min; half-life at 14.6 µg/mL ([7]; pH 7.4 phosphate buffer, read-out: half-life (t½) at pH 7.4 (converted)): 630 min; half-life at 14.6 µg/mL ([7]; pH 9 phosphate buffer, read-out: half-life (t½) at pH 9): > 1440 min; MUTU-1 Cell Viability % 1 μM [1]: 10.3%"
"O=[N+]([O-])/C=C/c1c2ccccc2cc2ccccc12 [Compound 12a, (E)-9-(2-nitrovinyl)anthracene]",–,–,–,81.9,–,94.6,< 14,82,2570,2080,14.0,apoptosis in MUTU-I at 1 µM [5]: little effect; apoptosis in MUTU-I at 10 µM [5]: 90%; apoptosis in DG-75 at 1 µM [6]: 10%; MUTU-1 Cell Viability % 10 μM [1]: 5.9%
"O=C1C2C(C(=O)N1c1ccccc1)C1(/C=C/[N+](=O)[O-])c3ccccc3C2(Cl)c2ccccc21 (stereo not shown) [Compound 16d, (E)-9-Chloro-10-(2-nitrovinyl)-13-phenyl-9,10-dihydro-9,10-[3,4]epipyrroloanthracene-12,14-dione]",–,0.4–13.5%,13.5,0.77,0.41,< 14,5.1,44,220,590,–,apoptosis in MUTU-I at 0.2 µM [5]: 63%; apoptosis in DG-75 at 1 µM [6]: 15%; cell viability in DG-75 cell line (1 and 10 μM together or concentration not stated) [2]: 0.4–13.5%
"N#CC1CC2c3ccccc3C1(/C=C/[N+](=O)[O-])c1ccccc12 (stereo not shown) [Compound 19a, (E)-10-(2-Nitrovinyl)-9,10-dihydro-9,10-ethanoanthracene-11-carbonitrile]",–,–,–,9,0,20.6,0,87,380,690,–,apoptosis in MUTU-I at 0.5 µM [5]: > 90%
"O=C1C2C3c4ccccc4C(/C=C/[N+](=O)[O-])(c4ccccc43)C2C(=O)N1CO (stereo not shown) [Compound 13n, (E)-13-(Hydroxymethyl)-9-(2-nitrovinyl)-9,10-dihydro-9,10-[3,4]epipyrroloanthracene-12,14-dione]",230 to 232,–,–,–,1.8,74.6,20.4,–,–,–,–,MUTU-1 Cell Viability % 1 μM [1]: 0%
"CC(=O)O[C@H]1C(=O)[C@@]2(C)[C@H]([C@H](OC(=O)c3ccccc3)[C@]3(O)C[C@H](OC(=O)[C@H](O)[C@@H](NC(=O)c4ccccc4)c4ccccc4)C(C)=C1C3(C)C)[C@]1(OC(C)=O)CO[C@@H]1C[C@@H]2O [Taxol, taxol, reference compound]",–,–,–,30.4,10,48.8,10,73,320,1320,9.9,apoptosis in MUTU-I at 1 µM [5]: 63%; apoptosis in MUTU-I at 10 µM [5]: 87%; apoptosis in DG-75 at 1 µM [6]: 21%; MUTU-1 Cell Viability % 10 μM [1]: 9.8%
"O=C1OC(=O)C2C1C1c3ccccc3C2(/C=C/[N+](=O)[O-])c2ccccc21 (stereo not shown) [Compound 13a, (E)-9-(2-Nitrovinyl)-9,10-dihydro-9,10-[3,4]furanoanthracene-12,14-dione]",244 to 245,7–24%,–,24.4,12.5,78.5,62.2,–,–,–,–,–
"N#C/C=C/C12c3ccccc3C(c3ccccc31)C1C(=O)NC(=O)C12 (stereo not shown) [Compound 23b, (E)-3-(12,14-Dioxo-9,10-[3,4]epipyrroloanthracen-9(10H)-yl)acrylonitrile]",289 to 300,–,–,79.4,79,101,54,–,–,–,54.1,–
"N/N=C/C12c3ccccc3C(Cl)(c3ccccc31)C1C(=O)NC(=O)C12 (stereo not shown) [Compound 23i, (E)-9-Chloro-10-(hydrazonomethyl)-9,10-dihydro-9,10-[3,4]epipyrroloanthracene-12,14-dione]",241 to 244,–,–,102,106,85.8,19,–,–,–,18.9,–
"O=C1NC(=O)C2C1C1c3ccccc3C2(/C=C/[N+](=O)[O-])c2ccccc21 (stereo not shown) [Compound 13g, (E)-9-(2-Nitrovinyl)-9,10-dihydro-9,10-[3,4]epipyrroloanthracene-12,14-dione]",176 to 178,–,1.1,0.47,7.2,1,11.7,–,–,–,–,–
"O=C1NC(=O)C2C1C1(Cl)c3ccccc3C2(C=C[N+](=O)[O-])c2ccccc21 (stereo not shown) [Compound 13j, (E)-9-Chloro-10-(2-nitrovinyl)-9,10-dihydro-9,10-[3,4]epipyrroloanthracene-12,14-dione]",–,0.4–13.5%,–,< 1,0.62,12.1,5.9,90,250,780,–,apoptosis in MUTU-I at 0.5 µM [5]: > 90%; MUTU-1 Cell Viability % 1 μM [1]: 0.70%; cell viability in DG-75 cell line (1 and 10 μM together or concentration not stated) [2]: 0.4–13.5%
